Like-named read-outs stand apart in the source and are kept apart here. Values belong to the molecule of their own block, whether it stands above or below them.
What was measured:
[1] = target: T1, NPFF2 receptor (human NPFFR2 in CHO-RD-HGA16 cells) (Homo sapiens, UniProt Q9Y5X5); experiment: Calcium mobilization functional Ke assay, NPFF2; format: cell-based; conditions: for Kb: read-out: NPFF2 Ke
T1 construct: expressed in transfected cells

[2] = target: T2, NPFF1 receptor (human NPFFR1 in CHO-RD-HGA16 cells) (Homo sapiens, UniProt Q9GZQ6); experiment: Calcium mobilization functional Ke assay, NPFF1; format: cell-based; conditions: for Kb: read-out: NPFF1 Ke; for type of antagonism in curve-shift assays: standard incubation, competitive profile with longer incubations
T2 construct: expressed in transfected cells

[3] = Table 1, mean ± SEM, apparent dissociation constant vs NPFF
[4] = Table 2, 4-(4-methylthio)benzylamino series, mean ± SEM
[5] = Table 1, footnote c: pre-incubation of antagonist and test compound 45 min or 1 hr

T2 sequence (Q9GZQ6 whole entry): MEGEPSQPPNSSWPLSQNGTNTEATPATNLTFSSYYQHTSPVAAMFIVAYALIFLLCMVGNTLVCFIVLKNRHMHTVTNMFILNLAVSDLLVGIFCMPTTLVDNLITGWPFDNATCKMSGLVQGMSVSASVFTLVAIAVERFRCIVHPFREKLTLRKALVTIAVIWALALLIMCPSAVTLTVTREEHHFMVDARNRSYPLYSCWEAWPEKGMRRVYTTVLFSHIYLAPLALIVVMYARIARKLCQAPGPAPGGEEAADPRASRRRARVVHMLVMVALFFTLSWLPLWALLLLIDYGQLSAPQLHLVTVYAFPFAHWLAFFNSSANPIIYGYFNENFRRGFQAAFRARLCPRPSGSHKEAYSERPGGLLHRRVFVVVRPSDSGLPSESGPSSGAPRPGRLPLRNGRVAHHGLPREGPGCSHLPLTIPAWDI
T1 sequence (Q9Y5X5 whole entry): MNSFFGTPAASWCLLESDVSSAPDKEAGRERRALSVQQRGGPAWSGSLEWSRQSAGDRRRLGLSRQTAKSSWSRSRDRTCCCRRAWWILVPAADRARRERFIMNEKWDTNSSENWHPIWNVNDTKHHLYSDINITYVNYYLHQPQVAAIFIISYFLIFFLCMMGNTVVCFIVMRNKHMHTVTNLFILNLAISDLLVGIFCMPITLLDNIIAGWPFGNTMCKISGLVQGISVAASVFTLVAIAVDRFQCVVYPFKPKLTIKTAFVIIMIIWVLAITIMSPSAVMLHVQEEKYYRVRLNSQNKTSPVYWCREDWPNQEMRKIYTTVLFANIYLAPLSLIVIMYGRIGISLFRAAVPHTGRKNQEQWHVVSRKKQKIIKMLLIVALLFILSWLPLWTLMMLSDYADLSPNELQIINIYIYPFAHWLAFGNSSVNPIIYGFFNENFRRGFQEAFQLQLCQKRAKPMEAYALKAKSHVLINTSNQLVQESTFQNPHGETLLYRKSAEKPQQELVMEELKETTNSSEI

Kb [1, 3]: 9080 nM | Kb [2, 3]: 2600 nM | Kb ([2]; calcium mobilization assay): 9080 nM
Compound: CCCNC(=O)[C@@H]1C[C@H](NCc2ccc(OC)cc2)CN1Cc1ccccc1Cl [Compound 12, (2S,4S)-1-[(2-Chlorophenyl)methyl]-4-{[(4-methoxyphenyl)methyl]amino}-N-propylpyrrolidine-2-carboxamide]

Kb [1, 3]: 4930 nM | Kb [2, 3]: 2900 nM
Compound: CCN(CC)C(=O)[C@@H]1C[C@H](NCc2ccc(OC)cc2)CN1Cc1ccccc1Cl [Compound 40, (2S,4S)-1-[(2-Chlorophenyl)methyl]-N,N-diethyl-4-{[(4-methoxyphenyl)methyl]amino}pyrrolidine-2-carboxamide]

NPFF2 Ke ([1]; calcium mobilization assay): 7,250 nM | NPFF1 Ke ([2]; calcium mobilization assay): 1,620 nM
Compound: CCNC(=O)[C@@H]1C[C@H](NCc2ccc(SC)cc2)CN1Cc1ccccc1Cl [Compound 1]

Kb [1, 3]: 9880 nM | Kb [2, 3]: 1130 nM | NPFF1 Ke ([2]; calcium mobilization assay): 1,130 nM
Compound: COc1ccc(CN[C@H]2C[C@@H](C(=O)NCCc3ccc(F)cc3)N(Cc3ccccc3Cl)C2)cc1 [Compound 35, (2S,4S)-1-[(2-Chlorophenyl)methyl]-N-[2-(4-fluorophenyl)ethyl]-4-{[(4-methoxyphenyl)methyl]amino}pyrrolidine-2-carboxamide]

Kb [1, 5]: 1540 nM | Kb [2, 3]: 1320 nM
Compound: COc1ccc(CN[C@H]2C[C@@H](C(=O)NCCC(C)C)N(Cc3ccccc3Cl)C2)cc1 [Compound 17, (2S,4S)-1-[(2-Chlorophenyl)methyl]-4-{[(4-methoxyphenyl)methyl]amino}-N-(3-methylbutyl)pyrrolidine-2-carboxamide]

Kb [1, 5]: 2010 nM | Kb [2, 5]: 780 ± 80 nM | type of antagonism in curve-shift assays [2]: insurmountable antagonism
Compound: COc1ccc(CN[C@H]2C[C@@H](C(=O)NCc3ccccc3)N(Cc3ccccc3Cl)C2)cc1 [Compound 23, (2S,4S)—N-Benzyl-1-[(2-chlorophenyl)methyl]-4-{[(4-methoxyphenyl)methyl]amino}pyrrolidine-2-carboxamide]

Kb [2, 3]: 1240 nM
Compound: CCCCNC(=O)[C@@H]1C[C@H](NCc2ccc(OC)cc2)CN1Cc1ccccc1Cl [Compound 13, (2S,4S)—N-Butyl-1-[(2-chlorophenyl)methyl]-4-{[(4-methoxyphenyl)methyl]amino}pyrrolidine-2-carboxamide]

NPFF2 antagonist activity ([1]; at 10 μM): inactive | NPFF1 antagonist activity ([2]; at 10 μM): inactive
Compound: CNC(=O)[C@@H]1C[C@H](NCc2ccc(OC)cc2)CN1Cc1ccccc1Cl [Compound 10, (2S,4S)-1-[(2-Chlorophenyl)methyl]-4-{[(4-methoxyphenyl)methyl]amino}-N-methylpyrrolidine-2-carboxamide]

Kb [2, 5]: > 10000 nM
Compound: CCCCCCCCCCNC(=O)[C@@H]1C[C@H](NCc2ccc(OC)cc2)CN1Cc1ccccc1Cl [Compound 19, (2S,4S)-1-[(2-Chlorophenyl)methyl]-N-decyl-4-{[(4-methoxyphenyl)methyl]amino}pyrrolidine-2-carboxamide]

Kb [1, 5]: 1220 nM | Kb [2, 3]: 1120 nM
Compound: COc1ccc(CN[C@H]2C[C@@H](C(=O)NCCC3CCCCC3)N(Cc3ccccc3Cl)C2)cc1 [Compound 21, (2S,4S)-1-[(2-Chlorophenyl)methyl]-N-(2-cyclohexylethyl)-4-{[(4-methoxyphenyl)methyl]amino}pyrrolidine-2-carboxamide]

Kb [1, 3]: 3680 nM | Kb [2, 3]: 1500 nM
Compound: CCC(C)NC(=O)[C@@H]1C[C@H](NCc2ccc(OC)cc2)CN1Cc1ccccc1Cl (stereo partly drawn) [Compound 14, (2S,4S)—N-(Butan-2-yl)-1-[(2-chlorophenyl)methyl]-4-{[(4-methoxyphenyl)methyl]amino}pyrrolidine-2-carboxamide]

Kb [2, 3]: 1820 nM | NPFF1 Ke ([2]; calcium mobilization assay): 1,820 nM
Compound: COc1ccc(CN[C@H]2C[C@@H](C(=O)NCCc3ccncc3)N(Cc3ccccc3Cl)C2)cc1 [Compound 37, (2S,4S)-1-[(2-Chlorophenyl)methyl]-4-{[(4-methoxyphenyl)methyl]amino}-N-[2-(pyridin-4-yl)ethyl]pyrrolidine-2-carboxamide]

Kb [2, 3]: 1960 nM
Compound: COc1ccc(CN[C@H]2C[C@@H](C(=O)NCCN3CCOCC3)N(Cc3ccccc3Cl)C2)cc1 [Compound 20, (2S,4S)-1-[(2-Chlorophenyl)methyl]-4-{[(4-methoxyphenyl)methyl]amino}-N-[2-(morpholin-4-yl)ethyl]pyrrolidine-2-carboxamide]

Second part, the molecule before the results:

Compound: CSc1ccc(CN[C@H]2C[C@@H](C(=O)NCCc3ccc(F)c(F)c3)N(Cc3ccccc3Cl)C2)cc1 [Compound 48, (2S,4S)-1-[(2-Chlorophenyl)methyl]-N-[2-(3,4-difluorophenyl)ethyl]-4-{[(4-(methylthio)phenyl)methyl]amino}pyrrolidine-2-carboxamide]
Kb ([1]; Table 2, footnote c: pre-incubation 1 hr): 880 ± 160 nM | Kb [2, 4]: 470 ± 60 nM | Kb ([2]; calcium mobilization assay): 470 nM

Compound: CSc1ccc(CN[C@H]2C[C@@H](C(=O)NCCc3ccccc3)N(Cc3ccccc3Cl)C2)cc1 [Compound 45, (2S,4S)-1-[(2-Chlorophenyl)methyl]-4-{[(4-(methylthio)phenyl)methyl]amino}-N-(2-phenylethyl)pyrrolidine-2-carboxamide]
Kb [1, 4]: 3700 nM | Kb [2, 4]: 530 ± 80 nM | Kb ([2]; calcium mobilization assay): 530 nM

Compound: O=C(NCCc1ccc([N+](=O)[O-])cc1)[C@@H]1C[C@H](NCc2ccc(C(F)(F)F)cc2)CN1Cc1ccccc1Cl [Compound 62, (2S,4S)-1-[(2-Chlorophenyl)methyl]-N-[2-(4-nitrophenyl)ethyl]-4-({[4-(trifluoromethyl)phenyl]methyl}amino)pyrrolidine-2-carboxamide]
Kb ([1]; Table 3, mean ± SEM): 6380 nM | Kb ([2]; Table 3, mean ± SEM): 2060 nM

Compound: COc1ccc(CN[C@H]2C[C@@H](C(=O)NCCc3ccccc3)N(Cc3ccc4ccccc4c3)C2)cc1 [Compound 87, (2S,4S)-4-{[(4-Methoxyphenyl)methyl]amino}-1-(naphthalen-2-ylmethyl)-N-(2-phenylethyl)pyrrolidine-2-carboxamide]
Kb ([1]; Table 4, mean ± SEM): 7220 nM | Kb ([2]; Table 4, mean ± SEM): 1720 nM

Compound: COc1ccc(CN[C@H]2C[C@@H](C(=O)NCCc3ccccc3)N(Cc3ccc(OC)c(OC)c3)C2)cc1 [Compound 81, (2S,4S)-1-[(3,4-Dimethoxyphenyl)methyl]-4-{[(4-methoxyphenyl)methyl]amino}-N-(2-phenylethyl)pyrrolidine-2-carboxamide]
Kb ([1]; Table 4, mean ± SEM): 5360 nM | Kb ([2]; Table 4, mean ± SEM): 9020 nM

Compound: COc1ccc(CN[C@H]2C[C@@H](C(=O)N3CCN(c4ccccc4)CC3)N(Cc3ccccc3Cl)C2)cc1 [Compound 42, (3S,5S)-1-[(2-Chlorophenyl)methyl]-N-[(4-methoxyphenyl)methyl]-5-(4-phenylpiperazine-1-carbonyl)pyrrolidin-3-amine]
Kb [1, 5]: 2080 nM | Kb [2, 5]: 1330 nM | NPFF1 Ke ([2]; calcium mobilization assay): 1,330 nM | type of antagonism in curve-shift assays [2]: insurmountable antagonism

Compound: COc1ccc(CN[C@H]2C[C@@H](C(=O)NCCc3ccc(C(F)(F)F)cc3)N(Cc3ccccc3Cl)C2)cc1 [Compound 36, (2S,4S)-1-[(2-Chlorophenyl)methyl]-4-{[(4-methoxyphenyl)methyl]amino}-N-{2-[4-(trifluoromethyl)phenyl]ethyl}pyrrolidine-2-carboxamide]
Kb [2, 3]: 1670 nM | NPFF1 Ke ([2]; calcium mobilization assay): 1,670 nM

Compound: COc1ccc(CN[C@H]2C[C@@H](C(=O)NCCc3ccccc3)N(Cc3ccc(C)cc3)C2)cc1 [Compound 83, (2S,4S)-4-{[(4-Methoxyphenyl)methyl]amino}-1-[(4-methylphenyl)methyl]-N-(2-phenylethyl)pyrrolidine-2-carboxamide]
Kb [1]: > 10000 nM | Kb [2]: 1320 nM

Compound: COc1ccc(CN[C@H]2C[C@@H](C(=O)NCCc3ccccc3)N(Cc3ccccc3C)C2)cc1 [Compound 82, (2S,4S)-4-{[(4-Methoxyphenyl)methyl]amino}-1-[(2-methylphenyl)methyl]-N-(2-phenylethyl)pyrrolidine-2-carboxamide]
Kb ([1]; Table 4, mean ± SEM): 3940 nM | Kb ([2]; Table 4, mean ± SEM): 490 ± 70 nM

Compound: COc1ccc(CN[C@H]2C[C@@H](C(=O)NCCc3ccc([N+](=O)[O-])cc3)N(Cc3ccccc3Cl)C2)cc1OC [Compound 60, (2S,4S)-1-[(2-Chlorophenyl)methyl]-4-{[(3,4-dimethoxyphenyl)methyl]amino}-N-[2-(4-nitrophenyl)ethyl]pyrrolidine-2-carboxamide]
Kb ([1]; Table 3, mean ± SEM): 3150 nM | Kb ([2]; Table 3, mean ± SEM): 1920 nM

Compound: O=C(NCCc1ccc([N+](=O)[O-])cc1)[C@@H]1C[C@H](NCc2ccc(O)cc2)CN1Cc1ccccc1Cl [Compound 61, (2S,4S)-1-[(2-Chlorophenyl)methyl]-4-{[(4-hydroxyphenyl)methyl]amino}-N-[2-(4-nitrophenyl)ethyl]pyrrolidine-2-carboxamide]
Kb ([1]; Table 3, mean ± SEM): 6370 nM | Kb ([2]; Table 3, mean ± SEM): 4790 nM

Compound: COc1ccc(CN[C@H]2C[C@@H](C(=O)NCCc3ccccc3)N(Cc3ccc(C#N)cc3)C2)cc1 [Compound 86, (2S,4S)-1-[(4-Cyanophenyl)methyl]-4-{[(4-methoxyphenyl)methyl]amino}-N-(2-phenylethyl)pyrrolidine-2-carboxamide]
Kb ([1]; Table 4, mean ± SEM): > 10000 nM | Kb ([2]; Table 4, mean ± SEM): 3830 nM

Compound: CCCCN[C@H]1C[C@@H](C(=O)NCCc2ccc([N+](=O)[O-])cc2)N(Cc2ccccc2Cl)C1 [Compound 53, (2S,4S)-4-(Butylamino)-1-[(2-chlorophenyl)methyl]-N-[2-(4-nitrophenyl)ethyl]pyrrolidine-2-carboxamide]
Kb ([1]; Table 3, mean ± SEM): > 10000 nM | Kb ([2]; Table 3, mean ± SEM): 6120 nM

Compound: COc1ccc(CN[C@H]2C[C@@H](C(=O)NCCc3ccc(S(C)(=O)=O)cc3)N(Cc3ccccc3Cl)C2)cc1 [Compound 39, (2S,4S)-1-[(2-Chlorophenyl)methyl]-N-[2-(4-methanesulfonylphenyl)ethyl]-4-{[(4-methoxyphenyl)methyl]amino}pyrrolidine-2-carboxamide]
Kb [2, 3]: 1880 nM

Reference: US12390446B2 (RESEARCH TRIANGLE INSTITUTE, priority 2017, dated 2025)
